Assays:
[1] = system: Erysiphe graminis forma specialis tritici; test: Activity against powdery mildew of wheat; assay type: in vivo; details: wheat seedlings "Kanzler", sprayed 24 hours before inoculation, evaluated after 7 days
Description: (§1) Evaluation is carried out by determining the infected leaf areas in percent. These percentages are converted into efficacies. The efficacy (W) is calculated as follows using Abbot's formula: […]
(§2) α corresponds to the fungal infection of the treated plants in % and β corresponds to the fungal infection of the untreated (control) plants in % An efficacy of 0 means that the infection level of the treated plants corresponds to that of the untreated control plants; an efficacy of 100 means that the treated plants were not infected.
(§3) Colby formula: E=x+y−x·y/100
Activity Against Powdery Mildew of Wheat
The test plants were subsequently kept in a greenhouse at 20 to 24° C. and 60 to 90% relative atmospheric humidity. After 7 days, the extent of the mildew development was determined visually in % infection of the total leaf area.

Puccinia recondita = test: Curative activity against Puccinia recondita on wheat (wheat leaf rust); assay type: in vivo; details: wheat seedlings "Kanzler", sprayed 1 day after infection, evaluated after 7 days
Description: as §1, §2, §3
Curative Activity Against Puccinia recondita on Wheat (Wheat Leaf Rust) Leaves of potted wheat seedlings of the variety “Kanzler” were dusted with spores of leaf rust (Puccinia recondita). […] During this time, the spores germinated and the germinal tubes penetrated into the leaf tissue. […] After the spray coating had dried on, the test plants were cultivated in a greenhouse at from 20 to 22° C. and from 65 to 70% of relative atmospheric humidity for 7 days. Thereafter, the extent of rust fungus development on the leaves was determined.

| Structure (SMILES) | Efficacy in % of the untreated control ([1]; 4 ppm in the spray liquor) [%] | Efficacy in % of the untreated control ([1]; 16 ppm in the spray liquor) [%] | Efficacy in % of the untreated control (Puccinia recondita; 16 ppm in the spray liquor) [%] | Efficacy in % of the untreated control (Puccinia recondita; 63 ppm in the spray liquor) [%] | Efficacy in % of the untreated control ([1]; 1 ppm in the spray liquor) [%] |
| --- | --- | --- | --- | --- | --- |
| O=C(Nc1ccccc1-c1ccc(F)cc1)c1cccnc1Cl [Compound I.1] | 0 | 0 | 0 | 0 | – |
| O=C(Nc1ccccc1-c1ccc(Cl)cc1)c1cccnc1Cl [Compound I.2] | 0 | – | 0 | – | 0 |
| CC(Cc1ccc(C(C)(C)C)cc1)CN1C[C@@H](C)O[C@@H](C)C1 (stereo partly shown) [Compound IIa, fenpropimorph] | 20 | – | 20 | – | 0 |
| CC(Cc1ccc(C(C)(C)C)cc1)CN1CCCCC1 (stereo not shown) [Compound IIb, fenpropidin] | 30 | – | 20 | – | 0 |
| CCCCCCCCCCCCCN1CC(C)OC(C)C1 (stereo not shown) [Compound IIc, tridemorph] | 0 | 20 | – | 0 | – |

From US6777411B1, “Fungicide mixtures based on pyride amides and morpholine derivatives or piperidine derivatives” (priority 1997, dated 2004)
